Results taken from patent US8809377B2, “Deubiquitinase inhibitors and methods for use of the same” (The Regents of the University of Michigan, priority 2010, dated 2014).
Entries after “also recorded” stand apart in the source; their conditions may differ.

Columns and labels:
[1] = molecular target: UCH-L1 (Homo sapiens, UniProt P09936); experiment: Ub-AMC assay on purified DUB; type: biochemical; conditions: 5 μM
Procedure: (§1) Purified DUBs at optimal concentrations (USPS; 20 nM, UCH-L1; 20 nM, UCH-L3; 5 nM, USP9x; immunoprecipitated from 500 μg Z138 cell lysate) were incubated in DUB buffer containing WP1130, vehicle alone (DMSO) or 1 mM NEM (positive control for DUB inhibition) in a 100 μL reaction volume for 30 min. The reaction was initiated by the addition of 500 nM Ub-AMC and the release of AMC-fluorescence was recorded at ex/em 380/480 using a spectrofluorometer.
(§2) USP9x was immunoprecipitated from Z138 cell lysates, prepared in DUB buffer and the beads were incubated with vehicle alone or WP1130 for 30 min. Ub-AMC (500 nM) was added to each reaction and fluorescence was monitored every minute for up to 30 minutes. The maximum fluorescence observed at the end of the linear phase of substrate cleavage in control and WP1130 treated DUBs was used as a gauge to estimate DUB activity and % inhibition. Treatment with 5 μM WP1130 reduced the activities of USP9x, USP5 and UCH-L1 by 80% or more.

[2] = molecular target: UCH-L3 (Homo sapiens, UniProt P15374); experiment: Ub-AMC assay on purified DUB; type: biochemical
Procedure: as §1, §2

[3] = molecular target: T1, USP5 (Homo sapiens, UniProt P45974); experiment: Ub-AMC assay on purified DUB; type: biochemical; conditions: 5 μM
T1 construct: endogenous in cells; host or cells: Z138
T1 sequence (P45974 1-858): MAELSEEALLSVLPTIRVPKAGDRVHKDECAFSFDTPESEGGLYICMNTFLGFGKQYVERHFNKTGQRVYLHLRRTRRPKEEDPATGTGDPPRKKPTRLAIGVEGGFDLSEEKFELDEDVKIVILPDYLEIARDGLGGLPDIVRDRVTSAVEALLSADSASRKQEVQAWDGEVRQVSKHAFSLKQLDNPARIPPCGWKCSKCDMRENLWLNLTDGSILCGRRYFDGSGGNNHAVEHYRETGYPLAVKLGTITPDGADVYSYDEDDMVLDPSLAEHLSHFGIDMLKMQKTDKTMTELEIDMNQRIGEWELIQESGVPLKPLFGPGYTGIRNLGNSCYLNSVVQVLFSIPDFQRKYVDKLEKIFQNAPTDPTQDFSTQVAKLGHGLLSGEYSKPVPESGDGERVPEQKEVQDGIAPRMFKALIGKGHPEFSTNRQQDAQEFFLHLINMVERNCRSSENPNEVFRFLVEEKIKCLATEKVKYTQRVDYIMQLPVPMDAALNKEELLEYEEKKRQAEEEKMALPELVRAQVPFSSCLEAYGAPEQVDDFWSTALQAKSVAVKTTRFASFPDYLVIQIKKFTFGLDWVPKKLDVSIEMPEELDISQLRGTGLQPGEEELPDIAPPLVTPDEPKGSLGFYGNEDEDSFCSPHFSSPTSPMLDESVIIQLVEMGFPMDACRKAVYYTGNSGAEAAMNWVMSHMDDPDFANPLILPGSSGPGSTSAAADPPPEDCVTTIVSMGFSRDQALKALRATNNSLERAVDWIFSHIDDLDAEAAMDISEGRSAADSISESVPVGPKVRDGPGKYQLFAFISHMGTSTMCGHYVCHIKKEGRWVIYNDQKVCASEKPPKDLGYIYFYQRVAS
Procedure: as §1, §2

[4] = molecular target: T2, 20S proteasome (Homo sapiens, UniProt P28074); experiment: Proteasome activity assay in treated cells (Suc-LLVY-AMC); type: cell-based; conditions: 5 μM, 2 hr
T2 construct: endogenous in cells; host or cells: K562 and other CML lines, Z138
Procedure: Fluorogenic substrate Suc-LLVY-AMC was used to assay for the chymotryptic-like activity of the 20S proteasome. To assay for in vivo proteasome inhibition cells were treated with WP1130 (5 μM) or MG132 (5 μM) for 2 hours and lysed in ice-cold lysis buffer (50 mM HEPES, pH 7.5, 5 mM EDTA, 150 mM NaCl, 1% Triton X-100). Lysates were clarified by centrifugation at 20,000 RCF for 10 min and equal amounts of protein from each sample were incubated at 37° C. with 100 μM fluorogenic substrate. To assay for direct inhibition of the 20S proteasome in vitro, purified 20S human proteasome (200 ng) was incubated with WP1130 (5 μM), MG132 (5 μM) or Lactacystin (5 μM) for 30 min at 37° C. before addition of the substrates. Fluorescence intensity was measured using a spectrophotometer at excitation 360 nm & emission 460 nm. Assays were performed in triplicate, and statistical significance was determined with a paired Student's t test.

[5] = test system: CML and melanoma xenografts; experiment: Xenograft mouse models of CML and melanoma; type: in vivo
[6] = test system: p53; experiment: p53 immunoblot; type: cell-based; conditions: Z138 cells
Procedure: Whole cell lysates were prepared by boiling and sonicating the cell pellets in 1× Laemmli reducing sample buffer. To prepare detergent soluble and insoluble fractions, cells were lysed in cold isotonic lysis buffer [10 mM Tris-HCl (pH 7.5), 0.5% Triton X-100, 150 mM NaCl along with Mini-Complete and PhosSTOP] for 15 min on ice and centrifuged 10 minutes at 20,000 RCF. The clarified supernatant was used as a source of the detergent soluble cell fraction. The detergent insoluble fraction was extracted by the sonication of residual pellet in equal volumes of boiling 1× Laemmli reducing sample buffer. Equal volumes of cellular lysate or equal protein amounts were electrophoresed on SDS-PAGE gels.
An increase in p53 protein levels was observed upon WP1130 treatment. Co-treatment of Z138 cells with cycloheximide (50 μg/mL) and WP1130 confirmed the stabilization rather than induction of p53 protein. Furthermore, a rapid decline in MCL-1 levels upon WP1130 treatment was observed. To re-confirm the role played by USP9x and USP5 in regulating the levels of MCL-1 and p53 respectively, a siRNA based knockdown of USP9x and USP5 in HEK293T cells was performed.

T2 sequence (P28074 60-263): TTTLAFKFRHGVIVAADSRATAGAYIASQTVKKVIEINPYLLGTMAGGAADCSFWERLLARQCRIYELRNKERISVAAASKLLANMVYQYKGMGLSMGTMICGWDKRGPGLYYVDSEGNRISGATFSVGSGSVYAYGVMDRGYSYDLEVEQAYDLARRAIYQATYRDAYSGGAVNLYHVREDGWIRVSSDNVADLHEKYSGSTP
Chain of UCH-L3 (P15374 whole entry, species assumed): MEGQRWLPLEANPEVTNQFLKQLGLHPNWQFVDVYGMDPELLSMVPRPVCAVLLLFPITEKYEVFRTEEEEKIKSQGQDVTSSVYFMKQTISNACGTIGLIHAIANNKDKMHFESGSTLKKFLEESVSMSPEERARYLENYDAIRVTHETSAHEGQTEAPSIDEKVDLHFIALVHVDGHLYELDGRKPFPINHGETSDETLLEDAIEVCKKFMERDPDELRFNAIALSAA
Chain of UCH-L1 (P09936 whole entry, species assumed): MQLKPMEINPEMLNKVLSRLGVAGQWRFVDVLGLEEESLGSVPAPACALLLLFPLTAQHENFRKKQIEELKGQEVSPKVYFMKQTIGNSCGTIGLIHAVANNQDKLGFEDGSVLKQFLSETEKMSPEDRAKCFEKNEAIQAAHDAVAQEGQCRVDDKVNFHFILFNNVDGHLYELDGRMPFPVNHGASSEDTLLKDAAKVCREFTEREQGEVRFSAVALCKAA

CCC[C@H](NC(=O)/C(C#N)=C/c1cccc(Br)n1)c1ccccc1 [WP1130]
reduction of UCH-L1 activity [1]: ≥ 80% | inhibition of UCH-L3 activity [2]: No inhibition | reduction of USP5 activity [3]: ≥ 80% | 20S proteasome chymotryptic-like activity in intact cells (in vivo) [4]: did not suppress; also recorded: no significant decline | tumor growth in vivo [5]: effectively suppresses tumor growth | p53 protein levels [6]: increase
